Tests used:
DBH [1] = target: T1, DBH (Rattus norvegicus, UniProt Q05754); settings: cited from earlier work; for blood-brain barrier crossing, indicated by effect of injections on brain dopamine levels: Antabuse 100 mg/kg, Nepicastat 50 mg/kg, intraperitoneal
T1 construct: In rat studies, Antabuse (100 mg/kg) and Nepicastat (50 mg/kg) were injected intraperitoneally; host or cells: rat, in vivo (endogenous enzyme)
T1 sequence (Q05754 1-620): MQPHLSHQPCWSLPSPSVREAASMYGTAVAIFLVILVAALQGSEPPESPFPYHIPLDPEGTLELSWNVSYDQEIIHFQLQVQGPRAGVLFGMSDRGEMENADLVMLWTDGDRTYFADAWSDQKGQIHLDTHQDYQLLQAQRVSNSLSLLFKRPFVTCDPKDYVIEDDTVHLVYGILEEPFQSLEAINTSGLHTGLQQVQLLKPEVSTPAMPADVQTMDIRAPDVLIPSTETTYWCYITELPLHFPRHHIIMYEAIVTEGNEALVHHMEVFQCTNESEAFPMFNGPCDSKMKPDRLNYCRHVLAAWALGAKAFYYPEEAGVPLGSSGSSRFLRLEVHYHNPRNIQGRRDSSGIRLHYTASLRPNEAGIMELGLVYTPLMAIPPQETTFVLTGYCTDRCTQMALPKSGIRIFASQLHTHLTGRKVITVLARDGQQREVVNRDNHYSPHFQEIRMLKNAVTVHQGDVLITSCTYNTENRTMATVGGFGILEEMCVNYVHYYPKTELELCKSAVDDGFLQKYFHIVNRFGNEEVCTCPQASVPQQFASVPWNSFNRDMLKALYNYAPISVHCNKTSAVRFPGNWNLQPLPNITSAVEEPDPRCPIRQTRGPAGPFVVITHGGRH

DBH [2] = settings: in vivo; cited from earlier work
[3] = up to 120 mg/day; cited from earlier work
LC = test: event arena memory test in KORD mice with the LC inhibited by SALB; type: in vivo; settings: SALB subcutaneously 10 minutes before encoding trial
D1R = test: light-stimulated dopamine release from LC axons, fEPSP in CA1 of hippocampal slices; type: cell-based; settings: 10 uM, n=4, Schaffer collateral stimulation
Source text: The chemogenetic approach allows the acute memory deficits produced by graded decrease in LC function to be measured. This model then provides a rigorous and rapid screening method to determine whether the resulting memory deficits can be reversed by agents that enhance dopamine release (with or without noradrenaline stimulants). Results in FIG. 2 document the role of LC axons in producing functionally important dopamine release. The experiments were done in CA1 using synaptic stimulation of Schaffer collaterals to measure synaptic strength. FIG. 2, left: brief light stimulation of the hippocampus (arrow) produces a long-lasting enhancement of the fEPSP (normalized increase in charge) (n=5). This light-stimulated release of dopamine replicates the effect of direct application of dopamine (Huang and Kandel, 1995). […] Stimulation protocol: three sets of ˜18 Hz stimulation (5 msec light pulses)=a total of 60 pulses/set; 1 minute between sets. The LC was injected in vivo with AAV virus that produced channel-rhodopsin in cells containing tyrosine hydroxylase, an enzyme in the dopamine and noradrenaline synthesis pathway (see FIG. 1). The selective expression in noradrenergic cells in the LC is due to Cre expression driven by a tyrosine hydroxylase promoter. […] The response of CA1 pyramidal cells was measured by the field EPSP (fEPSP). […]

[4] = IP, suspension in sterile saline

SMILES: CCN(CC)C(=S)SSC(=S)N(CC)CC [Disulfiram, 1,1′,1″,1′″-[disulfanediylbis(carbonothioylnitrilo)]tetraethane]
- blood-brain barrier crossing, indicated by effect of injections on brain dopamine levels (DBH [1]): cross the blood-brain barrier
- highest effective dose that didn't affect operant responses (DBH [1]; [4]): 100 mg/kg
- lowest effective concentration (DBH [1]; [4]): 10 mg/kg
- effect on dopamine concentration and/or dopamine release (DBH [2]): increase the concentration of dopamine and/or increase dopamine release

SMILES: NCc1c[nH]c(=S)n1[C@H]1CCc2c(F)cc(F)cc2C1 [Nepicastat, 5-(aminomethyl)-1-[(2S)-5,7-difluoro-1,2,3,4-tetrahydronaphthalen-2-yl]-1,3-dihydro-2H-imidazole-2-thione]
- tolerability [3]: well tolerated
- blood-brain barrier crossing, indicated by effect of injections on brain dopamine levels (DBH [1]): cross the blood-brain barrier
- dose reported to match the 100 mg/kg dose of Antabuse on DBH (DBH [1]; IP): 50 mg/kg
- effect on dopamine concentration and/or dopamine release (DBH [2]): increase the concentration of dopamine and/or increase dopamine release

SMILES: COC(=O)[C@@H]1C[C@H](O)C(=O)[C@H]2[C@@]1(C)CC[C@H]1C(=O)O[C@H](c3ccoc3)C[C@]21C [SALB, salvinorin B]
- 24 hr memory (LC): strongly reduce

SMILES: CN1CCc2cc(Cl)c(O)cc2[C@H]2c3ccccc3CC[C@@H]21 [SCH39166]
- enhancement of the fEPSP by light stimulation of LC axons in the presence of the antagonist (D1R): no enhancement

Source: patent US10821097B2, “DBH inhibitors for treating or preventing memory loss” (Brandeis University, priority 2015, dated 2020)
